The results in this text go back to patent US12252484B2, “Pyrazolopyridine compounds for the treatment of autoimmune disease” (Hoffmann-La Roche Inc., priority 2018, dated 2025).

Where two headings read alike, the source gives them in different places.

The target of the experiment is T1, human TLR8 (Homo sapiens, UniProt Q9NR97).
T1 sequence (Q9NR97 27-1041): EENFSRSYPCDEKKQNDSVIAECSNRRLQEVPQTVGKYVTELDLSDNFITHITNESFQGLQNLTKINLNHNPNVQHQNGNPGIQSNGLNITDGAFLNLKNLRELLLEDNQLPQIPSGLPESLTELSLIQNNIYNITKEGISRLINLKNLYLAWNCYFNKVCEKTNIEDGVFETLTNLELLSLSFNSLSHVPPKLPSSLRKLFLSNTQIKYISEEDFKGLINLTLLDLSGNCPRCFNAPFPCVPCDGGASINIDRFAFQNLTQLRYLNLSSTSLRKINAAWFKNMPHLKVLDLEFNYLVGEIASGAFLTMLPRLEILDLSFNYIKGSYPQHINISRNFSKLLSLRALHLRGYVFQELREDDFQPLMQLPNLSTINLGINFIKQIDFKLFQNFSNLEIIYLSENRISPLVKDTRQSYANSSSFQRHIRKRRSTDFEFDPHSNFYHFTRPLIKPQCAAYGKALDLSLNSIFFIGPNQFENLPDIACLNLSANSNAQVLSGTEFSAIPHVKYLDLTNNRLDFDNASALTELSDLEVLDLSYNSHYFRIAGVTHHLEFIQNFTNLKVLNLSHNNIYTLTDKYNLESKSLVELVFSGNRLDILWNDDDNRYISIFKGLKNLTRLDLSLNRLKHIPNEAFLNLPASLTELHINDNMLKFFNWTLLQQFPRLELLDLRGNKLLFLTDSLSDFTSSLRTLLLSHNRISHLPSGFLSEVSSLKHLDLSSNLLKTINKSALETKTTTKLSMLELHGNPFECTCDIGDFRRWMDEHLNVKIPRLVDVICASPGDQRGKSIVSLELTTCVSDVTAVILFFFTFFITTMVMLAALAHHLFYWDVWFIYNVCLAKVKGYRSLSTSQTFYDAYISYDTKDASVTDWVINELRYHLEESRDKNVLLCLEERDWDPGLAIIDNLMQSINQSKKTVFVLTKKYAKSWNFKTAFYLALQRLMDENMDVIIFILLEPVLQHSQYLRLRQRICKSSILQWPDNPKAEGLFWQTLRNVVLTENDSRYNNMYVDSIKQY
As to the kind of experiment: HEK293-Blue-hTLR-8 cells assay (SEAP reporter, R848 stimulation). It counts as cell-based. The protocol: The following tests were carried out in order to determine the activity of the compounds of formula (I) in HEK293-Blue-hTLR-7/8/9 cells assay.
HEK293-Blue-hTLR-8 Cells Assay:
A stable HEK293-Blue-hTLR-8 cell line was purchased from InvivoGen (Cat. #: hkb-htlr8, San Diego, California, USA). These cells were originally designed for studying the stimulation of human TLR8 by monitoring the activation of NF-κB. A SEAP (secreted embryonic alkaline phosphatase) reporter gene was placed under the control of the IFN-β minimal promoter fused to five NF-κB and AP-1-binding sites. The SEAP was induced by activating NF-κB and AP-1 via stimulating HEK-Blue hTLR8 cells with TLR8 ligands. Therefore the reporter expression was declined by TLR8 antagonist under the stimulation of a ligand, such as R848, for incubation of 20 hrs. The cell culture supernatant SEAP reporter activity was determined using QUANTI-Blue™ kit (Cat. #: rep-qb1, Invivogen, San Diego, Ca, USA) at a wavelength of 640 nm, a detection medium that turns purple or blue in the presence of alkaline phosphatase.
HEK293-Blue-hTLR8 cells were incubated at a density of 250,000˜450,000 cells/mL in a volume of 170 μL in a 96-well plate in Dulbecco's Modified Eagle's medium (DMEM) containing 4.5 g/L glucose, 50 U/mL penicillin, […], […], 2 mM L-glutamine, 10% (v/v) heat-inactivated fetal bovine serum with addition of 20 μL test compound in a serial dilution in the presence of final DMSO at 1% and 10 μL of 60 uM R848 in above DMEM, perform incubation under 37° C. in a CO2 incubator for 20 hrs. Then 20 μL of the supernatant from each well was incubated with 180 μL Quanti-blue substrate solution at 37° C. for 2 hrs and the absorbance was read at 620˜655 nm using a spectrophotometer. The signalling pathway that TLR8 activation leads to downstream NF-κB activation has been widely accepted, and therefore similar reporter assay was modified for evaluating TLR8 antagonist.

Setting [1] is: HEK293-Blue-hTLR-8 cells, R848 ligand, 20 hrs incubation, read-out: TLR8 IC50.

In general, IC50 refers to the midpoint of a concentration-inhibition curve. For the molecule `C[C@@H]1CN(c2ccc(C#N)n3nccc23)C[C@H](C(=O)NCC2CN(C)CCO2)O1` (stereo partly drawn) [Example 7, (2R,6R)-4-(7-cyanopyrazolo[1,5-a]pyridin-4-yl)-6-methyl-N-[(4-methylmorpholin-2-yl)methyl]morpholine-2-carboxamide], under setting [1], the IC50 was found to be 50 nM.
The molecule `C[C@@H]1CN(c2ccc(C#N)n3nccc23)C[C@H](C(=O)NC2CC3CCCC(C2)N3C)O1` (stereo partly drawn) [Example 35, (2R,6R)-4-(7-cyanopyrazolo[1,5-a]pyridin-4-yl)-6-methyl-N-(9-methyl-9-azabicyclo[3.3.1]nonan-3-yl)morpholine-2-carboxamide] displayed a half-inhibitory concentration (IC50) of 38 nM.
Turning to `C[C@@H]1CN(c2ccc(C#N)n3nccc23)C[C@H](C(=O)NC2CCCNCC2)O1` (stereo partly drawn) [Example 6, (2R,6R)-N-(azepan-4-yl)-4-(7-cyanopyrazolo[1,5-a]pyridin-4-yl)-6-methyl-morpholine-2-carboxamide], the IC50 under setting [1] was determined as 11 nM.
Consider `C[C@H]1C[C@@H](NC(=O)[C@H](C)N)CN(c2ccc(C#N)n3nccc23)C1` [Example 44, (2S)-2-amino-N-[(3R,5S)-1-(7-cyanopyrazolo[1,5-a]pyridin-4-yl)-5-methyl-3-piperidyl]propanamide], for which the IC50 under setting [1] is 140 nM.
In the case of `C[C@@H]1CN(c2ccc(C#N)n3nccc23)C[C@H](C(=O)NC2C3CNCC2COC3)O1` (stereo partly drawn) [Example 27, (2R,6R)-4-(7-cyanopyrazolo[1,5-a]pyridin-4-yl)-6-methyl-N-(3-oxa-7-azabicyclo[3.3.1]nonan-9-yl)morpholine-2-carboxamide], the IC50 under setting [1] is 370 nM.
With `C[C@@H]1CN(c2ccc(C#N)n3nccc23)C[C@H](C(=O)N2CCC3(CCNCC3)CC2)O1` [Example 28, 4-[(2R,6R)-2-(3,9-diazaspiro[5.5]undecane-3-carbonyl)-6-methyl-morpholin-4-yl]pyrazolo[1,5a]pyridine-7-carbonitrile], the half-inhibitory concentration (IC50) under setting [1] came out at 97 nM.
As for `C[C@@H]1CN(c2ccc(C#N)n3nccc23)C[C@H](C(=O)NC2C3CNC[C@@H]32)O1` (stereo partly drawn) [Example 31, Trans-(2R,6R)-N-(3-azabicyclo[3.1.0]hexan-6-yl)-4-(7-cyanopyrazolo[1,5-a]pyridin-4-yl)-6-methyl-morpholine-2-carboxamide], the 50% inhibitory concentration (IC50) under setting [1] amounted to 72 nM.
Consider `C[C@@H]1CN(c2ccc(C#N)n3nccc23)C[C@H](C(=O)NC2CCN(C)CC2)O1` [Example 1, (2R,6R)-4-(7-cyanopyrazolo[1,5-a]pyridin-4-yl)-6-methyl-N-(1-methyl-4-piperidyl)morpholine-2-carboxamide], for which the IC50 under setting [1] stood at 7 nM.
For the molecule `CCC(O)CNC(=O)[C@H]1CN(c2ccc(C#N)n3nccc23)C[C@@H](C)O1` (stereo partly drawn) [Example 13, (2R,6R)-4-(7-cyanopyrazolo[1,5-a]pyridin-4-yl)-N-(2-hydroxybutyl)-6-methyl-morpholine-2-carboxamide], under setting [1], the IC50 was 570 nM.
Regarding `C[C@@H]1CN(c2ccc(C#N)n3nccc23)C[C@H](C(=O)NC2CC3CCCC(C2)N3)O1` (stereo partly drawn) [Example 14, (2R,6R)-N-(9-azabicyclo[3.3.1]nonan-3-yl)-4-(7-cyanopyrazolo[1,5-a]pyridin-4-yl)-6-methyl-morpholine-2-carboxamide], under setting [1], the IC50 turned out to be 30 nM.
As for `C[C@@H]1CN(c2ccc(C#N)n3nccc23)C[C@H](C(=O)NC2C3CCC2CNC3)O1` (stereo partly drawn) [Example 26, (2R,6R)-N-(3-azabicyclo[3.2.1]octan-8-yl)-4-(7-cyanopyrazolo[1,5-a]pyridin-4-yl)-6-methyl-morpholine-2-carboxamide], under setting [1], the IC50 came to 93 nM.
As for `C[C@@H]1CN(c2ccc(C#N)n3nccc23)C[C@H](C(=O)NC2CC3CCC2CN3C)O1` (stereo partly drawn) [Example 34, (2R,6R)-4-(7-cyanopyrazolo[1,5-a]pyridin-4-yl)-6-methyl-N-(2-methyl-2-azabicyclo[2.2.2]octan-5-yl)morpholine-2-carboxamide], the IC50 under setting [1] came to 98 nM.
With `C[C@@H]1CN(c2ccc(C#N)n3nccc23)C[C@H](C(=O)NC2CCOCC2)O1` [Example 4, (2R,6R)-4-(7-cyanopyrazolo[1,5-a]pyridin-4-yl)-6-methyl-N-tetrahydropyran-4-yl-morpholine-2-carboxamide], the IC50 under setting [1] was determined as 910 nM.
On to `C[C@@H]1CN(c2ccc(C#N)n3nccc23)C[C@H](C(=O)NC2C3CCCC2CNC3)O1` (stereo partly drawn) [Example 37, (2R,6R)-N-(3-azabicyclo[3.3.1]nonan-9-yl)-4-(7-cyanopyrazolo[1,5-a]pyridin-4-yl)-6-methyl-morpholine-2-carboxamide], for which, under setting [1], the half-inhibitory concentration (IC50) is 18 nM.
Turning to `C[C@H]1C[C@@H](N)CN(c2ccc(C#N)n3nccc23)C1` [Example 43, 4-[(3R,5S)-3-amino-5-methyl-1-piperidyl]pyrazolo[1,5-a]pyridine-7-carbonitrile], under setting [1], the half-maximal inhibitory concentration (IC50) worked out at 12 nM.
Still for that read-out and setting: to `C[C@@H]1CN(c2ccc(C#N)n3nccc23)C[C@H](C(=O)NCC(C)(C)CN)O1` [Example 39, (2R,6R)-N-(3-amino-2,2-dimethyl-propyl)-4-(7-cyanopyrazolo[1,5-a]pyridin-4-yl)-6-methyl-morpholine-2-carboxamide] belongs 33 nM; to `C[C@@H]1CN(c2ccc(C#N)n3nccc23)C[C@H](C(=O)NC(C)(C)CN)O1` [Example 41, (2R,6R)-N-(2-amino-1,1-dimethyl-ethyl)-4-(7-cyanopyrazolo[1,5-a]pyridin-4-yl)-6-methyl-morpholine-2-carboxamide], 140 nM; to `C[C@H]1C[C@@H](NCC#N)CN(c2ccc(C#N)n3nccc23)C1` [Example 46, 4-[(3R,5S)-3-(cyanomethylamino)-5-methyl-1-piperidyl]pyrazolo[1,5-a]pyridine-7-carbonitrile], 240 nM.
As for `C[C@@H]1CN(c2ccc(C#N)n3nccc23)C[C@H](C(=O)NC2CN(C)CC23CC3)O1` (stereo partly drawn) [Example 32, (2R,6R)-4-(7-cyanopyrazolo[1,5-a]pyridin-4-yl)-6-methyl-N-(5-methyl-5-azaspiro[2.4]heptan-7-yl)morpholine-2-carboxamide], under setting [1], the half-maximal inhibitory concentration (IC50) is 31 nM.
Consider `C[C@@H]1CN(c2ccc(C#N)n3nccc23)C[C@H](C(=O)NCC2CCNC2)O1` (stereo partly drawn) [Example 40, (2R,6R)-4-(7-cyanopyrazolo[1,5-a]pyridin-4-yl)-6-methyl-N-(pyrrolidin-3-ylmethyl)morpholine-2-carboxamide], for which, under setting [1], the IC50 came out at 380 nM.
Same read-out and setting: to `C[C@@H]1CN(c2ccc(C#N)n3nccc23)C[C@H](C(=O)NCC2CNCC2(F)F)O1` (stereo partly drawn) [Example 18, (2R,6R)-4-(7-cyanopyrazolo[1,5-a]pyridin-4-yl)-N-[(4,4-difluoropyrrolidin-3-yl)methyl]-6-methyl-morpholine-2-carboxamide] belongs 100 nM; to `C[C@@H]1CN(c2ccc(C#N)n3nccc23)C[C@H](C(=O)N2CC(N)C2)O1` [Example 8, 4-[(2R,6R)-2-(3-aminoazetidine-1-carbonyl)-6-methyl-morpholin-4-yl]pyrazolo[1,5a]pyridine-7-carbonitrile], 520 nM; to `C[C@@H]1CN(c2ccc(C#N)n3nccc23)C[C@H](C(=O)NC2CCNC2)O1` (stereo partly drawn) [Example 25, (2R,6R)-4-(7-cyanopyrazolo[1,5-a]pyridin-4-yl)-6-methyl-N-pyrrolidin-3-yl-morpholine-2-carboxamide], 610 nM.
